The OPERA property sets (Mansouri et al. 2018)
Values after ≈ are worked out from the molar mass of the structure shown.

In order of falling logP:
1. Clc1cc2c(Cl)c(Cl)c(Cl)c(Cl)c2c(Cl)c1Cl  8.2
2. CC(=O)c1cc2c(cc1C)C(C)(C)C(C)CC2(C)C (stereo unspecified)  5.7
3. CCCCCCCCC  5.65
4. CCCCCCCc1ccccc1  5.37
5. Clc1ccc2ccc(Cl)cc2c1  4.81
6. CC(C)c1ccc2c(c1)CC[C@H]1[C@](C)(C(=O)O)CCC[C@]21C  4.8
7. CN(C)CCCN1c2cc(O)ccc2Sc2ccc(Cl)cc21  4.63
8. O=C(NCCN1CCC(n2c(=O)[nH]c3cc(Cl)ccc32)CC1)c1ccc(F)cc1  4.63
9. OCCC(F)(F)C(F)(F)C(F)(F)C(F)(F)C(F)(F)C(F)(F)F  4.54
10. CCCCOC(=O)c1ccccc1C(=O)OCCCC  4.5
11. CCCCC(OC(Cc1ccccc1)C(=O)N1CCC(OCOC)CC1)C(=O)NC(CC1CCCCC1)C(O)CC(C(=O)NCCCNC(C)=O)C(C)C (stereo unspecified)  4.3
12. CCCCC(OC(Cc1ccccc1)C(=O)N1CCC(OCOC)CC1)C(=O)NC(CC1CCCCC1)C(O)CC(C(=O)NCCCNc1n[nH]c(N)n1)C(C)C (stereo unspecified)  4.3
13. O=C1c2ccccc2C(=O)C1C(=O)C(c1ccccc1)c1ccccc1  4.27
14. CCCCCCc1ccc(N)cc1  4.21
15. CCC(C(=O)Oc1ccccc1)C(C)C (stereo unspecified)  4.2
16. CCCCC(NC(Cc1ccccc1)C(=O)N1CCC(OCOC)CC1)C(=O)NC(CC1CCCCC1)C(O)CC(C(=O)NCCNc1n[nH]c(N)n1)C(C)C (stereo unspecified)  4.2
17. CCCCCCCCCCCCN1CC(C(=O)OC)CC1=O (stereo unspecified)  4
18. C=CCOc1ccccc1OCC(CNC(C)C)OC(=O)C(C)C (stereo unspecified)  3.77
19. NS(=O)(=O)c1nn2c(=Nc3ccc(Cl)cc3)snc2s1  3.63
20. O=C(O)CCCC(=O)c1ccc(-c2ccccc2)cc1  3.35
21. COC(=O)C1=C(C)NC(C)=C(C(=O)OCC(C)C)C1c1ccccc1[N+](=O)[O-] (stereo unspecified)  3.26
22. CCCCC[C@H](O)/C=C/[C@H]1[C@H](O)CC(=O)[C@@H]1CCCCCCC(=O)O  3.2
23. BrC=C(Br)Br  3.2
24. CC(C)N(C(=O)COc1nnc(C(F)(F)F)s1)c1ccc(F)cc1  3.2
25. CC(C)(C)[C@@H](O)[C@@H](Cc1ccc(Cl)cc1)n1cncn1 (single isomer, unassigned)  3.2
26. Nc1ccc2c(c1)Cc1cc([N+](=O)[O-])ccc1-2  3.06
27. CCCCc1ccc(N)cc1  3.05
28. CCCC(C)CCC(C)=O (stereo unspecified)  2.92
29. COc1ccc(-c2cc(C#N)c(Cl)nc2C)cc1OC  2.86
30. CCCCc1ccc(Cn2cncn2)cc1  2.81
31. Cc1cccc(C)c1C#[N+][O-]  2.74
32. CCCCCOC(=O)c1cccnc1  2.55
33. COc1ccc(C(=O)CS(=O)(=O)c2ccc(C)cc2)cc1  2.47
34. NC(Cc1ccc(O)c(O)c1)C(=O)OCCc1ccc(Cl)cc1 (stereo unspecified)  2.33
35. CCCN1CCOC2c3cccc(O)c3CCC21 (stereo unspecified)  2.22
36. Cc1ccccc1NCc1cnc2nc(N)nc(N)c2c1C  1.98
37. NS(=O)(=O)c1cc2c(cc1Cl)NC(C1CC3C=CC1C3)NS2(=O)=O (stereo unspecified)  1.95
38. O=C(O)CNC(=O)c1ccc(I)cc1  1.94
39. O=[N+]([O-])c1ccc2c(c1)NCC2  1.92
40. COc1cccc(OCCN(C)C)c1  1.69
41. O=[N+]([O-])c1ccc2nc[nH]c2c1  1.5
42. CC(C)CCOC(=O)c1cc(=O)[nH]c(=O)[nH]1  1.48
43. C/C=C(/C)C(=O)O[C@H]1CCN2CC=C(COC(=O)[C@](O)([C@H](C)OC)C(C)(C)O)[C@H]12  1.28
44. N#Cc1cc(-c2ccncc2)cnc1NCCO  1.17
45. Cc1cc(C)nc(NC(=O)NS(=O)(=O)c2ccccc2C(=O)OC2COC2)n1  1.1
46. O=C(O)c1nc(Cl)ccc1Cl  1.06
47. C=CCN1CCC(CNC(=O)c2cc3nn[nH]c3cc2OC)C1 (stereo unspecified)  0.95
48. CC(=O)N[C@@H](Cc1ccccc1)C(=O)O  0.93
49. Cc1nnc(-c2ccccc2)c(=O)n1N  0.83
50. CC(C)COCCO  0.75
51. CCOC(=O)[C@@H](N)Cc1ccc(O)cc1  0.72
52. CCN(CC)P(=O)(N(C)C)N(C)C  0.66
53. Clc1ccc(O[Si]23OCCN(CCO2)CCO3)cc1  0.6
54. CCNC(=O)CNC(=O)c1ccccc1  0.58
55. C=CC(=O)NCCCN1CCSCC1  0.54
56. NC(Cc1ccc(O)c(O)c1)C(=O)OCC1CCCCO1 (stereo unspecified)  0.47
57. C[C@H](CS)C(=O)N1CCC[C@H]1C(=O)O  0.34
58. COCC(C)OC(=O)C(N)Cc1ccc(O)c(O)c1 (stereo unspecified)  0.08
59. CCCCC(=O)Oc1ccc(CC(N)C(=O)O)cc1 (stereo unspecified)  0.07
60. CCCCNC(=O)CCC(NS(=O)(=O)c1ccc(C)cc1)C(=O)O (stereo unspecified)  0
61. C=CC(=O)NCCCN(C)C  0
62. CCc1c(O)c(=O)ccn1C  -0.2
63. CCN(CC)C(=O)CCC(=O)OCn1ncc2c(O)ncnc21  -0.22
64. CCOCCn1cnc2c(=N)n(C)c(=O)[nH]c21  -0.4
65. CNC(=O)CCC(=O)c1cccnc1  -0.69
66. O=C1CCC(c2ccc[n+]([O-])c2)N1 (stereo unspecified)  -1.01
67. NC(N)=S  -1.08
68. CCCCCCCC(=O)[O-].[Na+]  -1.38
69. COCCn1cnc2[nH]c(=O)n(C)c(=N)c21  -1.49
70. Nc1ccc(C=Cc2ccc(N)cc2S(=O)(=O)O)c(S(=O)(=O)O)c1  -1.7
71. Nc1ccc(S(=O)(=O)O)cc1  -2.16

In order of falling solubility:
1. O=P1(N(CCCl)CCCl)NCCCO1 (stereo unspecified)  153000 µM (≈ 40000 µg/mL)
2. CC(C)c1ccc2c(c1)CC[C@H]1[C@](C)(C(=O)O)CCC[C@]21C  22 µM (≈ 6.6 µg/mL)
3. c1ccc2c(c1)ccc1ccccc12  6.45 µM (≈ 1.15 µg/mL)
4. CC(=O)c1cc2c(cc1C)C(C)(C)C(C)CC2(C)C (stereo unspecified)  4.84 µM (≈ 1.25 µg/mL)
5. CCc1ccc2cc3ccccc3cc2c1  0.13 µM (≈ 0.0268 µg/mL)
